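Test compounds were applied to cells in 96-well plates for 48 hours at 5 doses. TGI marks complete inhibition of growth.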
Experiments:
Assay in all cases: NCI tumour cell line growth inhibition, 48 h
K-562 leukemia = test system: K-562 leukemia
OVCAR-5 ovarian = test system: OVCAR-5 ovarian
CAKI-1 renal = test system: CAKI-1 renal
UACC-257 melanoma = test system: UACC-257 melanoma
IGROV1 ovarian = test system: IGROV1 ovarian
SK-OV-3 ovarian = test system: SK-OV-3 ovarian
MOLT-4 leukemia = test system: MOLT-4 leukemia
SW-620 colon = test system: SW-620 colon
OVCAR-8 ovarian = test system: OVCAR-8 ovarian
SF-295 CNS = test system: SF-295 CNS
EKVX NSCLC = test system: EKVX NSCLC
HOP-62 NSCLC = test system: HOP-62 NSCLC
LOX IMVI melanoma = test system: LOX IMVI melanoma
SN12C renal = test system: SN12C renal
T-47D breast = test system: T-47D breast
NCI-H460 lung = test system: NCI-H460 lung
MALME-3M melanoma = test system: MALME-3M melanoma
ACHN renal = test system: ACHN renal
OVCAR-3 ovarian = test system: OVCAR-3 ovarian
SNB-75 CNS = test system: SNB-75 CNS
UO-31 renal = test system: UO-31 renal
SK-MEL-28 melanoma = test system: SK-MEL-28 melanoma
SK-MEL-2 melanoma = test system: SK-MEL-2 melanoma
786-0 renal = test system: 786-0 renal
SK-MEL-5 melanoma = test system: SK-MEL-5 melanoma
SF-268 CNS = test system: SF-268 CNS
SR leukemia = test system: SR leukemia
KM12 colon = test system: KM12 colon
A549 NSCLC = test system: A549 NSCLC
HCT-116 colon = test system: HCT-116 colon
U251 CNS = test system: U251 CNS
HL-60(TB) leukemia = test system: HL-60(TB) leukemia
COLO 205 colon = test system: COLO 205 colon
RXF 393 renal = test system: RXF 393 renal
MCF7 breast = test system: MCF7 breast
HOP-92 NSCLC = test system: HOP-92 NSCLC
M14 melanoma = test system: M14 melanoma
BT-549 breast = test system: BT-549 breast
HCT-15 colon = test system: HCT-15 colon
NCI/ADR-RES ovarian = test system: NCI/ADR-RES ovarian
OVCAR-4 ovarian = test system: OVCAR-4 ovarian
DU-145 prostate = test system: DU-145 prostate
UACC-62 melanoma = test system: UACC-62 melanoma
MDA-MB-231 breast = test system: MDA-MB-231 breast
SF-539 CNS = test system: SF-539 CNS
HS 578T breast = test system: HS 578T breast
NCI-H522 lung = test system: NCI-H522 lung
TK-10 renal = test system: TK-10 renal
SNB-19 CNS = test system: SNB-19 CNS
NCI-H226 lung = test system: NCI-H226 lung
NCI-H23 lung = test system: NCI-H23 lung
HT29 colon = test system: HT29 colon
MDA-MB-435 = test system: MDA-MB-435
PC-3 prostate = test system: PC-3 prostate

`CCOc1c(N=Nc2ccccc2Cl)c(-c2ccccc2)nn1C(=S)S` gave a TGI (K-562 leukemia) of over 100 µM, a TGI (OVCAR-5 ovarian) of over 100 µM and a TGI (CAKI-1 renal) of 70.3 µM. It also gave a TGI (UACC-257 melanoma) of over 100 µM, a TGI (IGROV1 ovarian) of over 100 µM and a TGI (SK-OV-3 ovarian) of over 100 µM. It also gave a TGI (MOLT-4 leukemia) of 58.2 µM, a TGI (SW-620 colon) of over 100 µM and a TGI (OVCAR-8 ovarian) of over 100 µM. For the same compound, the TGI (SF-295 CNS) was over 100 µM, the TGI (EKVX NSCLC) was over 100 µM and the TGI (HOP-62 NSCLC) was over 100 µM. It also gave a TGI (LOX IMVI melanoma) of 46.1 µM, a TGI (SN12C renal) of 34.8 µM and a TGI (T-47D breast) of over 100 µM. It also gave a TGI (NCI-H460 lung) of over 100 µM, a TGI (MALME-3M melanoma) of 95.2 µM and a TGI (ACHN renal) of over 100 µM. The TGI (OVCAR-3 ovarian) was 90.1 µM, the TGI (SNB-75 CNS) was over 100 µM and the TGI (UO-31 renal) was over 100 µM. It also gave a TGI (SK-MEL-28 melanoma) of over 100 µM, a TGI (SK-MEL-2 melanoma) of over 100 µM and a TGI (786-0 renal) of over 100 µM. It also gave a TGI (SK-MEL-5 melanoma) of 57.9 µM, a TGI (SF-268 CNS) of over 100 µM and a TGI (SR leukemia) of 60 µM. It also gave a TGI (KM12 colon) of over 100 µM, a TGI (A549 NSCLC) of over 100 µM and a TGI (HCT-116 colon) of over 100 µM. The TGI (U251 CNS) was over 100 µM, the TGI (HL-60(TB) leukemia) was over 100 µM and the TGI (COLO 205 colon) was 47.5 µM. For the same compound, the TGI (RXF 393 renal) was over 100 µM, the TGI (MCF7 breast) was over 100 µM and the TGI (HOP-92 NSCLC) was over 100 µM. It also gave a TGI (M14 melanoma) of over 100 µM, a TGI (BT-549 breast) of over 100 µM and a TGI (HCT-15 colon) of over 100 µM. It also gave a TGI (NCI/ADR-RES ovarian) of over 100 µM, a TGI (OVCAR-4 ovarian) of over 100 µM and a TGI (DU-145 prostate) of over 100 µM. It also gave a TGI (UACC-62 melanoma) of over 100 µM, a TGI (MDA-MB-231 breast) of 56.5 µM and a TGI (SF-539 CNS) of 50.4 µM. For the same compound, the TGI (HS 578T breast) was 75.4 µM, the TGI (NCI-H522 lung) was 89.9 µM and the TGI (TK-10 renal) was over 100 µM. The TGI (SNB-19 CNS) was over 100 µM, the TGI (NCI-H226 lung) was 93.8 µM and the TGI (NCI-H23 lung) was over 100 µM. It also gave a TGI (HT29 colon) of over 100 µM, a TGI (MDA-MB-435) of over 100 µM and a TGI (PC-3 prostate) of over 100 µM.
